The values that follow come from publication PMC6429263, “Evolution and Antibacterial Evaluation of 8-Hydroxy-cycloberberine Derivatives as a Novel Family of Antibacterial Agents Against MRSA” (Molecules, 2019).

Molecules are shown by their SMILES. Some results are limits rather than exact numbers.

One series concerns MSSA ATCC 29213. The series can be described thus: MIC, agar dilution, MSSA ATCC 29213. The class given is cell-based, S. aureus. The following applies: Staphylococcus aureus; MSSA ATCC 29213; read-out: MIC.
The subject of another series is MSSA 15. In words: MIC, agar dilution, MSSA 15 (clinical isolate). The class given is cell-based, S. aureus. The following applies: Staphylococcus aureus; MSSA 15, isolated from patients in China; read-out: MIC.
The next series deals with MSSA 16-1. The series can be described thus: MIC, agar dilution, MSSA 16-1 (clinical isolate). In kind it is cell-based, S. aureus. The following applies: Staphylococcus aureus; MSSA 16-1, isolated from patients in China; read-out: MIC.
The next series deals with MSSE ATCC 12228. The series can be described thus: MIC, agar dilution, MSSE ATCC 12228. The class given is cell-based, S. epidermidis. The following applies: Staphylococcus epidermidis, ATCC12228; MSSE ATCC 12228; read-out: MIC.
For the next series, the system named is MSSE 16-5. In words: MIC, agar dilution, MSSE 16-5 (clinical isolate). In kind it is cell-based, S. epidermidis. The following applies: Staphylococcus epidermidis; MSSE 16-5, isolated from patients in China; read-out: MIC.
The test system of the next series is S.s ATCC 15305. The series can be described thus: MIC, agar dilution, S.s ATCC 15305. In kind it is cell-based. The following applies: Staphylococcus saprophyticus, ATCC15305; S. saprophyticus ATCC 15305; read-out: MIC.
The test system of a further series is S.h ATCC 35982. In words: MIC, agar dilution, S.h ATCC 35982. In kind it is cell-based. The following applies: Staphylococcus hominis, ATCC35982; S. hominis ATCC 35982; read-out: MIC.
The subject of another series is MRSA 13-18. The series can be described thus: MIC, agar dilution, MRSA 13-18. The class given is cell-based. The following applies: Staphylococcus aureus; MRSA 13-18; read-out: MIC.
The subject of a further series is MRSA 13-23. In words: MIC, agar dilution, MRSA 13-23. The class given is cell-based. The following applies: Staphylococcus aureus; MRSA 13-23; read-out: MIC.
The test system of the next series is MRSA 16-34. In words: MIC, agar dilution, MRSA 16-34. The class given is cell-based. The following applies: Staphylococcus aureus; MRSA 16-34; read-out: MIC.
The next series concerns MRSA ATCC 43300. The series can be described thus: MIC, agar dilution, MRSA ATCC 43300. The class given is cell-based. The following applies: Staphylococcus aureus; MRSA ATCC 43300; read-out: MIC.
For another series, the system named is MRSA ATCC-B AA-1708. In words: MIC, agar dilution, MRSA ATCC-BAA-1708 (mupA positive). In kind it is cell-based. The following applies: Staphylococcus aureus; MRSA ATCC-BAA-1708, mupA positive (mupirocin resistance); read-out: MIC.
In another series the test system is MRSA ATCC -BAA-976. The series can be described thus: MIC, agar dilution, MRSA ATCC-BAA-976 (clindamycin-resistant). In kind it is cell-based. The following applies: Staphylococcus aureus; MRSA ATCC-BAA-976, clindamycin-resistant S. aureus; read-out: MIC.
The test system of another series is VISA ATCC 700698. The series can be described thus: MIC, agar dilution, VISA ATCC 700698. In kind it is cell-based. The following applies: Staphylococcus aureus; VISA ATCC 700698; read-out: MIC.
A further series relates to VISA ATCC 700699. In words: MIC, agar dilution, VISA ATCC 700699. The class given is cell-based. The following applies: Staphylococcus aureus; VISA ATCC 700699; read-out: MIC.
For another series, the system named is MRSE 13-3. The series can be described thus: MIC, agar dilution, MRSE 13-3. The following applies: Staphylococcus epidermidis; MRSE 13-3; read-out: MIC. In kind it is cell-based, S. epidermidis.
A further series concerns MRSE 16-5. In words: MIC, agar dilution, MRSE 16-5. The class given is cell-based, S. epidermidis. The following applies: Staphylococcus epidermidis; MRSE 16-5; read-out: MIC.
Another series deals with MSSA/MRSA tested strains. Also noted: method as in PMID 29795764, PMID 30145374. The following applies: cited from earlier work.
A short description of series [1]: Stability in liver microsomes, human. The class given is in vitro ADME. As for the experimental part: The assay was performed with liver microsomes from CD-1 mouse, SD rat and human. […] The reaction can be started by the addition of liver microsomes or the tested compound or NADPH. Aliquots were sampled at 0, 5, 10, 20, 30 and 60 min incubation, and enzymatic reaction was stopped by protein precipitation in cold acetonitrile including 100 ng/mL tolbutamide and 100 ng/mL labetalol as internal standard. After centrifugation, samples were then analyzed by LC/MS/MS [26].

Series [2] is described as follows: Stability in liver microsomes, rat. The class given is in vitro ADME, SD rat. As for the experimental part: (§1) The assay was performed with liver microsomes from CD-1 mouse, SD rat and human. Microsomes in 100 mM potassium phosphate buffer (0.5 mg/mL microsomal protein), cofactor MgCl2 (10 mM), tested compound (1 μM, cosolvent (0.01% DMSO), 0.99% CH3OH), and then NADPH (1 mM) at 37 °C for 60 min. The reaction can be started by the addition of liver microsomes or the tested compound or NADPH. Aliquots were sampled at 0, 5, 10, 20, 30 and 60 min incubation, and enzymatic reaction was stopped by protein precipitation in cold acetonitrile including 100 ng/mL tolbutamide and 100 ng/mL labetalol as internal standard. After centrifugation, samples were then analyzed by LC/MS/MS [26].

Series [3] is described as follows: Stability in liver microsomes, mouse. In kind it is in vitro ADME, CD-1 mouse. Here is the method: as §1
In series [4] the test system is drug-susceptible strains: MSSA, MSSE, S. saprophyticus, S. hominis. The series can be described thus: MIC across the panel of drug-susceptible Gram-positive strains. In kind it is cell-based. The following applies: drug-susceptible Gram-positive strains of Table 1. From the text:
SAR study for antibacterial activity against drug-susceptible Gram-positive bacteria was initially carried out, taking Lev and compound 1 as reference drugs. […] Bacteria strains used in this study were from the ATCC collection and clinical isolates in Chinese hospitals. The influence of the methylenedioxy ring was explored first, and compounds 6 and 10 were created and tested.

For the compound `COc1ccc2c(c[n+]3c4c2ccc2c5c(cc(c24)CC3)OCO5)c1OC` [CBBR, cycloberberine], the minimum inhibitory concentration (MIC) with MSSA ATCC 29213, with MSSA 15, with MSSA 16-1, with MSSE ATCC 12228, in the series on MSSE 16-5 and in the series on S.s ATCC 15305 was more than 64 µg/mL in each case. The minimum inhibitory concentration (MIC) with S.h ATCC 35982, in the series on MRSA 13-18, in the series on MRSA 13-23, with MRSA 16-34, with MRSA ATCC 43300 and with MRSA ATCC-B AA-1708 was more than 64 µg/mL in each case. Further, the MIC with MRSA ATCC -BAA-976, in the series with VISA ATCC 700698, with VISA ATCC 700699, in the series with MRSE 13-3 and in the series with MRSE 16-5 was more than 64 µg/mL throughout. The “bactericidal activity” value in the series on MSSA/MRSA tested strains (MSSA/MRSA) is listed as “no bactericidal activity at all”. Further, the “MICs (range over strains)” value in the series on MSSA/MRSA tested strains (tested strains such as MRSA) was more than 64 µg/mL.

Regarding `C[C@]12CC[C@H]3[C@@H](CCC4=CC(=O)CC[C@@]43C)[C@@H]1CC[C@@H]2O` [Tes, testosterone, reference compound], the half-life at 1 μM in [1] (1 μM) stood at 12.9 min; in [2] (SD, 1 μM), 0.6 min; in series [3] (CD-1, 1 μM), 5.5 min. Besides, the “Remaining Ratio (T = 60 min)” value amounted to 3.9% in series [1] (60 min), 0% in series [2] (60 min) and 0% in series [3] (60 min). Further, the microsomal CLint at 1 μM amounted to 2350 µL/min/mg in series [2] (SD, 1 μM, read-out: CL Int (mic)) and 254 µL/min/mg in series [3] (CD-1, 1 μM, read-out: CL Int (mic)).

As for `COc1ccc2c(c[n+]3c4c2ccc2c(O)c(O)cc(c24)CC3)c1O` [compound 10, 1,2,8-Trihydroxy-9-methoxycycloberberine Chloride], the MIC is 32 µg/mL in the series with MSSA ATCC 29213; 16 µg/mL in the series on MSSA 15; 32 µg/mL in the series on MSSA 16-1; 8 µg/mL with MSSE ATCC 12228; 16 µg/mL in the series with MSSE 16-5; 32 µg/mL with S.s ATCC 15305. The MIC in the series on S.h ATCC 35982 was 32 µg/mL; in the series on MRSA 13-18, 32 µg/mL; in the series on MRSA 13-23 it was 64 µg/mL; in the series on MRSA 16-34 it was 16 µg/mL; with MRSA ATCC 43300, 32 µg/mL; in the series on MRSA ATCC-B AA-1708, 16 µg/mL. The MIC with MRSA ATCC -BAA-976 was found to be 64 µg/mL; in the series on VISA ATCC 700698, 32 µg/mL; with VISA ATCC 700699, 32 µg/mL; with MRSE 13-3 it was 32 µg/mL; in the series with MRSE 16-5, 16 µg/mL. Moreover, the “antimicrobial activity” value in series [4] is recorded as “lost the antimicrobial activities partially or completely”.
